Experiments:
[1] = test system: BCR-ABL mutant B-cell ALL; format: in vivo, mice; conditions: 13 models, n=88 animals
[2] = test system: B-cell ALL leukemic cells in bone marrow; assay: Bone marrow involvement at MRD in B-cell ALL PDX mice after mono- or combination therapy; format: in vivo; conditions: treated for 28 days
Description: Mice are treated with ponatinib alone, ponatinib in combination with QNZ (a TNF-alpha inhibitor), ponatinib in combination with fostamatinib (a proximal pre-BCR pathway inhibitor), ponatinib in combination with ibrutinib (a proximal pre-BCR pathway inhibitor), ponatinib in combination with duvelisib (a distal pre-BCR inhibitor), or ponatinib in combination with losmapimod (a p38 MAPK inhibitor) for 28 days. Bone marrow aspirates are obtained, and leukemic cells are isolated using conventional Ficoll centrifugation and FACS sorting methods. The leukemic cells are counted as bone marrow involvement at MRD, and it is compared to that before treatment.

| Compound | Event free survival (remission/relapse, in words) [1] | bone marrow involvement at MRD [2] |
| --- | --- | --- |
| O=C(Nc1ccc(OC(F)(F)Cl)cc1)c1cnc(N2CC[C@@H](O)C2)c(-c2cc[nH]n2)c1 [ABL001, asciminib] | significant earlier relapse | – |
| Cc1ccc(C(=O)Nc2ccc(CN3CCN(C)CC3)c(C(F)(F)F)c2)cc1C#Cc1cnc2cccnn12 [ponatinib] | – | 8% |

— US11844800B2, “Methods and compositions for predicting and preventing relapse of acute lymphoblastic leukemia” (Massachusetts Institute of Technology, priority 2019, dated 2023)
